Measurements from patent US20250042898A1, “Pharmaceutical Compounds And Compositions As c-Kit Kinase Inhibitors” (Enanta Pharmaceuticals, Inc., priority 2023, published 2025).

Key:
[1] = target: Recombinant human c-KIT kinase (Homo sapiens (Human), UniProt P10721); experiment: c-KIT Kinase Chemiluminescence Assay (ADP-Glo); assay type: biochemical; settings: recombinant human c-KIT 25 ng, ATP 50 μM, polyEY substrate, ADP-Glo luminescence
Source text: Staurosporine (AM-2282) and Imatinib (STI571) were purchased from Selleck Chemicals LLC (Houston, TX). The c-KIT reference compound THB001 (EP-053504) was synthesized by Enanta Pharmaceuticals, Inc. (Watertown, MA). The c-KIT Kinase Enzyme System (V4498) and ADP-Glo™ Kinase Assay kit (V6930) were purchased from Promega (Madison, WI). DMSO (D2650) was purchased from Sigma-Aldrich (Burlington, MA). ECHO-650 acoustic liquid handling system (67/492,212) and 384-well LDV ECHO source plates (LP-0200) were purchased from Labcyte, Inc (San Jose, CA). Envision Multimode Plate Reader (2104/464466) and ProxiPlate-384 Plus White 384-shallow well microplates (6008280) were purchased from PerkinElmer (Waltham, MA).
c-KIT Kinase Chemiluminescence Assay:
IC50 determination. Test compounds were dispersed into a 384-well low volume while ProxiPlate microplate from a DMSO solution using an ECHO 650 acoustic dispenser to generate a 11-point, 3.162-fold dilution, concentration curve starting at 10 μM in duplicate. Kinase Reaction: The kinase assay was based on the recommended protocol by c-KIT Kinase Enzyme System from Promega. Recombinant human c-KIT kinase in 3 μL of assay buffer (40 mM Tris pH 7.5, 20 mM MgCl2, 0.1 mg/mL BSA and 50 μM DTT) was added to the test or high control wells and 3 μL of assay buffer was added to the low control wells. The microplate was centrifuged at 800 rotations per minute (rpm) for 60 s and incubated at room temperature (RT) for 30 min. Next, 2 μL of buffered ATP and polyEY substrate solution was added to all wells. The microplate was centrifuged at 800 rpm for 60 s and incubated at RT for 2 h. The final assay contained c-KIT (25 ng), ATP (50 μM), polyEY substrate (0.2 μg/μL), test compounds (0-10 μM) and DMSO (1.7%) in 5 μL assay buffer. ADP detection with ADP-Glo™ Kinase Assay: After the kinase reaction incubation, 5 μL of ADP-Glo™ reagent was added to all wells. The microplate was centrifuged at 800 rpm for 60 s and incubated at RT for 40 min. Ten microliter (10 μL) of Kinase Detection Reagent (Luciferin-Luciferase system) was then added to all wells. The microplate was centrifuged at 800 rpm for 60 s and incubated at RT for 60 min. Kinase activity was measured as increase in luminescence at RT in an Envision plate reader equipped with 560 nm filters and operating in endpoint mode.
Data Analysis: Endpoint chemiluminescence from high and low control wells were used to calculate normalized c-KIT activity at various concentrations of test compounds. The normalized activities were fitted to inhibitor-versus-normalized response fit in GraphPad Prism 7 to determine half-maximal inhibitory concentration (IC50) and hill coefficient values (H).
c-KIT activity (%)=100/(1+I^H/IC50^H).
Where I is the inhibitor concentration and H is the Hill coefficient.
IC50 ranges are reported as follows: A<100 nM; B 0.1-1 μM; C>1 μM.

M-07e cells = experiment: M-07e Cellular Assay (SCF-mediated cell proliferation, CellTiter Glo); assay type: cell-based; settings: Homo sapiens, SCF at EC90, 72 hours incubation, CellTiter Glo cell viability, read-out: M-7e EC50
Protocol: M-07e cells (Creative Bioarray, CSC-C0249) which endogenously express human c-KIT were used to evaluate the effect of compounds on stem cell factor (SCF)-mediated cell proliferation. M-07e cells were cultured in growth media (RPMI+10% FBS+1% penicillin/streptomycin+10 ng/mL GM-CSF) at 5E5-1.5E6 cells/mL, replenishing media every 3-4 days. 1.5E4 cells were seeded per well in 384 well tissue culture treated plates in […] assay media (RPMI+10% FBS+1% penicillin/streptomycin) without growth factor stimulation and incubated at 37° C. in a CO2 humidity-controlled incubator. Twenty-four hours later, three-fold serially diluted test compounds in media containing SCF (at the previously determined EC90) were added to the plated M-07e cells and incubated for an additional 72 hours. Cell viability was determined by adding 25 μL CellTiter Glo (Promega) to the cells and the luminescence was measured using a Perkin Elmer Envision plate reader. The EC50 was determined using GraphPad Prism. Percent cell growth was determined after normalizing the curve to the mean RLU high control (no compound control wells) at 100% and the mean RLU low control (no SCF control wells) at 0%. EC50 curves were generated using a variable slope four-parameter logistic model with equation […]. ECso ranges are reported as follows: A<100 nM; B 0.1-1 μM; C>1 μM.

Sequence of Recombinant human c-KIT kinase (P10721 26-976): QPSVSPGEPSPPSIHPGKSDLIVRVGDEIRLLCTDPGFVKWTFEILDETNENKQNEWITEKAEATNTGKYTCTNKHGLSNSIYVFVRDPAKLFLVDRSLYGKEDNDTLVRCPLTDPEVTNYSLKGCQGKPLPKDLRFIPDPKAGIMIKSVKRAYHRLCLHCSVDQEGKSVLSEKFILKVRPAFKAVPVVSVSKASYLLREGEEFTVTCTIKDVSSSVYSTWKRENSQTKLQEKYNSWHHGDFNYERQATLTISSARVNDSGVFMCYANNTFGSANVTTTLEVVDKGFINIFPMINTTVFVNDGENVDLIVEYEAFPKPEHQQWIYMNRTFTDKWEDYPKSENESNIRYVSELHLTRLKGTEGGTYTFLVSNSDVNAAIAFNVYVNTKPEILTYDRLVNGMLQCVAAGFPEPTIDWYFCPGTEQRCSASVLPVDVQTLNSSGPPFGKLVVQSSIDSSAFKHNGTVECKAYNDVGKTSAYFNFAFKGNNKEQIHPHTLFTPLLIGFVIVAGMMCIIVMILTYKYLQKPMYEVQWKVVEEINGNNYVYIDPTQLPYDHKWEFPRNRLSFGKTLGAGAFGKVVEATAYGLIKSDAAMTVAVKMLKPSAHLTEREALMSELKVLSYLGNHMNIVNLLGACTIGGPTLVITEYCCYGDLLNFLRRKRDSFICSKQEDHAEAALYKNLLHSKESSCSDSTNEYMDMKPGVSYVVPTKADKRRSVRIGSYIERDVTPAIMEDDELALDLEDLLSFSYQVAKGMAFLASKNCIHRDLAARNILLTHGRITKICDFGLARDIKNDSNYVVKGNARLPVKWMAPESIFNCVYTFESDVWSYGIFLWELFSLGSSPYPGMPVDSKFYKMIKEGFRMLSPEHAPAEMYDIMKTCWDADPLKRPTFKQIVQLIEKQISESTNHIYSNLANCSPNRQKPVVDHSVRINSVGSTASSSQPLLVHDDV

Compound	IC50 [1] [nM]	EC50 (M-07e cells) [nM]
O=C(Nc1cc(-c2noc([C@H]3C[C@@H]3F)n2)ccn1)c1cnc2ccccn12 [Example 1]	> 1000	> 1000
O=C(Nc1cc(-c2noc(C3CC(F)(F)C3)n2)ccn1)c1cnc2ccccn12 [Example 2]	> 1000	> 1000
Cc1ncc(-c2ncc(OC(F)(F)F)cn2)cc1NC(=O)c1cnc2ccc(N3CC4(C3)CC(O)(C(F)F)C4)cn12 [Example 14]	> 1000	
Cc1ncc(-c2nnn(C3CC(F)(F)C3)n2)cc1NC(=O)c1cnc2ccc(N3CC4(C3)CC(O)(C(F)F)C4)cn12 [Example 16]	100 to 1000	
Cc1ncc(-c2noc([C@H]3C[C@@H]3F)n2)cc1NC(=O)c1cnc2cc(N3CC4(C3)CC(O)(C(F)F)C4)ccn12 [Example 17]	100 to 1000	

Now from value to compound, other results behind:

IC50 [1] [nM]	Compound	EC50 (M-07e cells) [nM]
100 to 1000	Cc1sc(-c2noc([C@H]3C[C@@H]3F)n2)cc1NC(=O)c1cnc2ccccn12 [Example 3]	100 to 1000
100 to 1000	Cc1sc(-c2noc(C3CC(F)(F)C3)n2)cc1NC(=O)c1cnc2ccccn12 [Example 4]	100 to 1000
100 to 1000	Cc1ncc(-c2noc([C@H]3C[C@@H]3F)n2)cc1NC(=O)c1cnc2ccc(N3CC4(C3)CC(O)(C(F)F)C4)cn12 [Example 15]	
